# Tests used:
# Type in all cases: in vivo
# [1] = tested on: C57BL/6 mice; experiment: Reduction of fatty liver condition by Compound 1 with ergosterol versus Compound 1 alone (STZ + high-fat diet model), liver histology; details: Compound 1 48 mg/kg twice a day oral, with or without ergosterol 12 mg/kg twice a day
# [2] = tested on: C57BL/6 mice; experiment: Fatty liver disease caused by non-chemical injury (STZ + high-fat diet Metabolic Syndrome model), histology and blood/plasma biochemistry; details: 48 mg/kg oral twice a day
# From the text: (§1) In order to simulate an unhealthy diet tendency in humans, such as excess consumption of high caloric food, the example constructs an animal model using […] fed a high fat diet to evaluate the effects of chronic liver injury.
# (§2) The assay simulates liver disease caused by a high fat diet through a “Metabolic Syndrome” model. That is, the model is different from conventional chemical induced models caused by toxic components such as CCl4. This model is distinguishable from the models caused by virus or alcohol.
# (§3) The establishment of a long term high-fat diet is described as follows: First, the C57BL/6 mice were obtained from Charles River Laboratories Japan (Kanagawa, Japan). Animals were housed under specific-pathogen-free (SPF) conditions. The liver injury was developed in 18 male mice by subcutaneous injection of Streptozotocin (STZ) 2 days after birth (day 2). After 4 weeks, a high-fat commercial rodent diet ad libitum (CLEA JAPAN) were supplied. These mice were randomized into 3 groups before the treatment. The test compound was administered in a volume of 10 ml/kg twice a day for three weeks. In the control group (group A), six […] were fed with vehicle (corn oil from Sigma Chemical Co.) via intubation. Six mice in group B were orally administered vehicle and the test compound at a dose of 48 mg/kg twice a day (96 mg/kg per day).
# (§4) (1) HE Staining. The HE staining method is performed as follows: Liver slices are cut from the livers' left side, embedded in Tissue-Tek® OCT™ Compounds (Sakura Finetek, Japan), snap frozen in liquid nitrogen, and stored at −80° C. 5 μm sections are cut, air-dried, fixed in acetone, air dried again and finally washed with phosphate buffered saline (PBS). Then, in the hematoxylin and eosin staining method, liver sections will be prefixed in a Bouin solution (formalin-acetic acid) for one week and then stained with Lillie-Mayer's Hematoxylin (Muto Pure Chemicals, Japan) and eosin solution (Wako, Japan) to visualize the lipid deposition, inflammations, cell necrosis and fibrosis, or stained with Masson's trichromic solution to visualize extra cellular matrix and collagen fibers of liver fibrosis development.
# (§5) (2) Sirius Red Staining. The Sirius Red staining method is performed as follows: Liver slices are cut from the livers' left side, embedded in Tissue-Tek® OCT™ Compounds (Sakura Finetek, Japan), snap frozen in liquid nitrogen, and stored at −80° C. 5 μm sections are cut, air-dried, fixed in acetone, air dried again and finally washed with phosphate buffered saline (PBS). Then, liver sections are stained with a Picro-Sirius Red Solution (Waldeck GmbH & KG, Germany) to observe collagen deposition.
# (§6) (3) Immunohistochemistry of Collagen Type 3. The immunohistochemistry assay for collagen Type 3 is performed as follows: Liver slices are cut from the livers' left side, embedded in Tissue-Tek® OCT™ Compounds (Sakura Finetek, Japan), snap frozen in liquid nitrogen, and stored at −80° C. 5 μm sections are cut, air-dried, fixed in acetone, air dried again and finally washed with phosphate buffered saline (PBS). For immunohistochemistry, endogenous peroxidase activity will be blocked by using 0.03% H2O2 for 5 minutes, followed by incubation with Block Ace (Dainippon Sumitomo Pharm, Japan) for 10 minutes. The sections will be incubated with the optimal dilution of anti-Type 3 collagen antibody overnight at 4° C. After incubation with an appropriate secondary antibody, the substrate reactions are performed using DAB/H2O2 solution (Nichirei, Japan).
# (§7) (1) Whole Blood Glucose. Blood samples were collected in heparinized syringes (Novo-Heparin 5,000 units/5 ml, Mochida Pharmaceutical, Japan) by cardiac puncture, kept on ice and centrifuged at 1,000×g at 4° C. for 15 minutes. The supernatant was collected and stored at −80° C. until use. Blood glucose was measured in whole blood samples using G Checker (Sanko Junyaku Co. Ltd., Japan). […]
# [3] = tested on: C57BL/6 mice; experiment: Fibrosis of steatohepatitis caused by non-chemical injury (STZ + high-fat diet model), histology and blood/plasma biochemistry
# From the text: as §1, §2, §3, §4, §5, §6, §7
smiles,measurement,setting,value
"COC1=C(OC)C(O)C(C/C=C(\C)CC/C=C(\C)CCC=C(C)C)C(C)C1=O (stereo not shown) [Compound 1, 4-hydroxy-2,3-dimethoxy-6-methyl-5 (3,7,11-trimethyl-dodeca-2,6,10-trienyl)-cyclohex-2-enone]","collagen deposition, Sirius red staining",[1]; vs control group,tended only slightly to decrease the collagen deposition
same,"collagen deposition (thickness of collagen fibers in the sinusoidal area), collagen Type 3 immunostaining",[1]; vs vehicle,tended to reduce the collagen deposition
same,"infiltration of inflammatory cells, HE-stained liver sections",[1]; vs vehicle,did not affect the infiltration of inflammatory cells
same,"macro vesicular fat deposition, HE-stained liver sections",[1]; vs vehicle,tended to decrease the macro vesicular fat deposition
same,"collagen deposition around the central veins and the bile ducts, Sirius red staining",[2]; compared to vehicle Group A,reduced
same,"collagen fibers in the sinusoidal area, collagen Type 3 immunostaining",[2]; compared to vehicle Group A,tended to reduce the thickness and/or the length of the collagen fibers
same,"infiltration of inflammatory cells, HE-stained liver sections",[2]; compared to vehicle Group A,tended to decrease the infiltration of inflammatory cells
same,"macro-vesicular fat deposition, HE-stained liver sections",[2]; compared to vehicle Group A,tended to decrease the macro-vesicular fat deposition
same,plasma ALT level,[2]; vehicle Group A 64±64,34±10 U/L
same,plasma AST level,[2]; vehicle Group A 202±177,141±35 U/L
same,whole blood glucose level,[2]; vehicle Group A 636±137,580 ± 122 mg/dL
same,plasma triglyceride (TG),[2]; vehicle Group A 643±402,229 ± 144 mg/dL
same,"collagen deposition around the central veins and the bile ducts, Sirius red staining",[3]; compared to vehicle Group A,reduced
same,"collagen fibers in the sinusoidal area, collagen Type 3 immunostaining",[3]; compared to vehicle Group A,tended to reduce the thickness and/or the length of the collagen fibers
same,"macro-vesicular fat deposition, HE-stained liver sections",[3]; compared to vehicle Group A,tended to decrease the macro-vesicular fat deposition
same,plasma ALT level,[3]; vehicle Group A 47±22,38±11 U/L
same,plasma AST level,"[3]; vehicle Group A 143±42, change not significant",167±87 U/L
same,whole blood glucose level,[3]; vehicle Group A 728±109,566 ± 65 mg/dL
same,plasma triglyceride (TG),[3]; vehicle Group A 758±877,704 ± 450 mg/dL

# Reference: patent US10959963B2, “Method for the treatment of fatty liver disease” (Golden Biotechnology Corporation, priority 2013, dated 2021)
